According to patent EP1593384A2, “Compositions for treatment of sexual dysfunction” (Palatin Technologies, Inc., priority 1999, dated 2005):

Columns and labels:
human MC4-R = assay: Agonist activity by cAMP detection in transfected HEK 293 cells; type: cell-based; conditions: conclusion from cAMP results
Method: HEK 293 cells, stably transfected with human MC4-R, were used. […] Following incubation, the medium was aspirated and cell layers extracted. The total cAMP accumulation in fixed quantities of cell extract was determined by competitive immunoassay using the cAMP kit.

Sprague Dawley rats [1] = assay: Induced penile erection by intravenous injection; type: in vivo; conditions: for dose resulting in (equivalent) penile response: intravenous injection in rats; for efficacious dose, efficacy determined by induction of penile erection in 100% of animals: intravenous injection, rats; for % Rats with Penile Erection / Number of Erections/Rat/30 Minutes: intravenous
MC3-R = conditions: read-out: RELATIVE BINDING (KI) MC3-R; competitive inhibition; transfected HEK 293 cells
Method: (§1) Relative binding was determined by competitive inhibition using α-MSH. B16-F1 melanoma cells were used as the source of MC1 receptors; HEK 293 cells, transfected with human melanocortin receptor sequences, were used as the source of MC3, MC4 and MC5 receptors; and Y1 cells were used as the source of MC2 receptors.

MC5-R = conditions: read-out: RELATIVE BINDING (KI) MC5-R; competitive inhibition; transfected HEK 293 cells
Method: as §1

Sprague Dawley rats [2] = assay: Induced penile erection by intranasal administration (dosing study); type: in vivo; conditions: for % Rats with Penile Erection / Number of Erections/Rat/30 Minutes: intranasal
MC1-R = conditions: read-out: RELATIVE BINDING (KI) MC1-R; competitive inhibition; B16-F1 melanoma cells as receptor source
Method: as §1

[3] = system: men with psychogenic erectile dysfunction; conditions: subcutaneous, 0.025 to 0.157 mg/kg body weight; cited from earlier work

Row | Substance | agonist activity to MC4-R (human MC4-R) | dose resulting in (equivalent) penile response (Sprague Dawley rats [1]) | efficacious dose, efficacy determined by induction of penile erection in 100% of animals (Sprague Dawley rats [1]) | Ki (MC3-R) [nM] | Ki (MC5-R) [nM] | % Rats with Penile Erection (Sprague Dawley rats [2]; dose 100 µg/kg) [%] | Number of Erections/Rat/30 Minutes (Sprague Dawley rats [2]; dose 100 µg/kg) | % Rats with Penile Erection (Sprague Dawley rats [2]; dose 500 µg/kg) [%] | Number of Erections/Rat/30 Minutes (Sprague Dawley rats [2]; dose 500 µg/kg) | period in which the penile erection response primarily occurred (Sprague Dawley rats [2]; nasal administration, rats, 30 minutes) | Ki (MC1-R) [nM] | % Rats with Penile Erection (Sprague Dawley rats [1]; dose 10.0 µg/kg) [%] | Number of Erections/Rat/30 Minutes (Sprague Dawley rats [1]; dose 10.0 µg/kg) | % Rats with Penile Erection (Sprague Dawley rats [1]; dose 100.0 µg/kg) [%] | Number of Erections/Rat/30 Minutes (Sprague Dawley rats [1]; dose 100.0 µg/kg) | treated men developing clinically apparent erections [3]
1 | Ac-Nle-cyclo(-Asp-His-D-Phe-Arg-Trp-Lys)-OH [Compound 1] | exhibits agonist activity | 2 µg/kg of body weight | ≥ 1 µg/kg of body weight |  |  |  |  |  |  |  |  |  |  |  |  | 
2 | Melanotan-II |  | 100 µg/kg of body weight | ≥ 100 µg/kg of body weight | 23.7 | 69.5 | 25 | 0.25 | 100 | 1.0 | 2nd and 3rd ten-minute period | 0.12 | 17 | 0.3 | 75 | 1.0 | 8 of 10
